# Values quoted from earlier work, collected in US20130071435A1, “NOVEL HERBAL FORMULATION FOR THE MODULATION OF IMMUNE SYSTEM OF HIV INFECTED PATIENTS AND A PROCESS OF PREPARATION THEREOF” (Sunil Kumar Swamy Rajan and Arun Kumar Swamy Rajan, priority 2011, published 2013).
# Conditions: experimental, in-vitro and in-vivo studies
row,Substance,immuno-potentiating activity
1,sitoindoside 1×,significant immuno-potentiating activity
2,sitoindoside ×,significant immuno-potentiating activity
